Data taken from the supplement of paper PMC10627819.

Assays:
[1] = tested on: S. aureus Newman; assay: fitness (endpoint OD595 vs no drug) (fraction); higher = more growth; settings: one replicate
Summary of the method: (§1)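 Volumes were 30 µl per well, or 55 µl for S. pneumoniae, in 384-well plates inoculated at OD595 0.01. Media were TSB, LB Lennox or CY at 37 °C, and OD595 was read every 30 min for 14 h with first-reading background subtraction. Fitness is the ratio of optical density at stationary-phase entry to the robust mean of no-drug controls. That ratio is capped at 1.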

[2] = tested on: B. subtilis 168; assay: as above
Summary of the method: as §1

[3] = tested on: S. aureus DSM 20231; assay: Bliss interaction score (quartile over a dose matrix) (fitness difference); higher = more antagonism (negative = synergy)
Summary of the method: (§2)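 Quartiles of the Bliss score were taken over technical, biological and donor/recipient replicates. That score is observed fitness minus the product of the single-drug fitness values, which were inferred from combination data. Fitness itself is OD595 at entry into stationary phase divided by the plate's robust no-drug mean, with a cap at 1.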

[4] = tested on: S. aureus Newman; assay: as above
Summary of the method: as §2

[5] = tested on: B. subtilis 168; assay: as above
Summary of the method: as §2

[6] = tested on: S. pneumoniae D39V; assay: as above
Summary of the method: as §2
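Throughout, for Bliss interaction score (quartile over a dose matrix): first quartile when negative (synergy) and third quartile when positive (antagonism).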

CO/N=C(\C(=O)N[C@@H]1C(=O)N2C(C(=O)O)=C(COC(N)=O)CS[C@H]12)c1ccco1 [Cefuroxime] + CC(C1CCC(C(O1)OC2C(CC(C(C2O)OC3C(C(C(CO3)(C)O)NC)O)N)N)N)NC [Gentamicin]
fitness, main component drawn
Settings | first compound 0.04875 µg/mL | first compound 0.0975 µg/mL | first compound 0.195 µg/mL
[1], partner 1 µg/mL | 0.937 | 0.923 | 0.942
[1], partner 2 µg/mL | 0.867 | 0.723 | 0.628
[1], partner 4 µg/mL | 0.0568 | 0.0486 | 0.0654
[2], partner 0.0625 µg/mL | 0.708 | 0.675 | 0.587
[2], partner 0.125 µg/mL | – | 0.379 | 0.0507
[2], partner 0.25 µg/mL | 0.0653 | 0.0449 | 0.0518

fitness, [2], one replicate, main component drawn
Settings | first compound 0.39 µg/mL | first compound 0.78 µg/mL | first compound 1.562 µg/mL | first compound 3.125 µg/mL | first compound 6.25 µg/mL
partner 0.0625 µg/mL | 0.6 | 0.549 | 0.249 | 0.0632 | 0.0658
partner 0.125 µg/mL | 0.202 | 0.142 | 0.0288 | 0.0271 | 0.0297
partner 0.25 µg/mL | 0.152 | 0.0935 | 0.0323 | 0.029 | 0.0215

main component drawn
Settings | Bliss interaction score
[3] | -0.313
[4] | -0.165
[5] | 0.0914
[6] | -0.0232

CO/N=C(\C(=O)N[C@@H]1C(=O)N2C(C(=O)O)=C(COC(N)=O)CS[C@H]12)c1ccco1 [Cefuroxime] + Cc1onc(-c2ccccc2)c1C(=O)N[C@@H]1C(=O)N2[C@@H]1SC(C)(C)[C@@H]2C(=O)O [Oxacillin]
fitness, [1]
Settings | first compound 0.04875 µg/mL | first compound 0.0975 µg/mL | first compound 0.195 µg/mL
partner 0.0156 µg/mL | 0.813 | 0.766 | 0.754
partner 0.0312 µg/mL | 0.714 | 0.671 | 0.694
partner 0.0625 µg/mL | 0.447 | 0.436 | 0.323

fitness, [2], one replicate
Settings | partner 0.002 µg/mL | partner 0.004 µg/mL | partner 0.0078 µg/mL | partner 0.008 µg/mL | partner 0.0155 µg/mL | partner 0.031 µg/mL | partner 0.075 µg/mL | partner 0.15 µg/mL | partner 0.3 µg/mL
first compound 0.04875 µg/mL | 0.882 | 0.858 | 0.556 | 0.979 | 0.507 | 0.507 | – | – | –
first compound 0.0975 µg/mL | 0.734 | 0.866 | 0.506 | 0.881 | 0.454 | 0.486 | – | – | –
first compound 0.195 µg/mL | 0.739 | 0.705 | 0.375 | 0.717 | 0.344 | 0.367 | 0.0418 | 0.0405 | 0.0333
first compound 0.39 µg/mL | – | – | – | – | – | – | 0.0582 | 0.0174 | 0.0294
first compound 0.78 µg/mL | – | – | – | – | – | – | 0.0387 | 0.0089 | 0.0244
first compound 1.562 µg/mL | 0.239 | 0.138 | – | 0.111 | – | – | – | – | –
first compound 3.125 µg/mL | 0.137 | 0.129 | – | 0.0905 | – | – | – | – | –
first compound 6.25 µg/mL | 0.11 | 0.1 | – | 0.0957 | – | – | – | – | –

Settings | Bliss interaction score
[3] | 0.0493
[4] | -0.0271
[5] | -0.0556
[6] | -0.115
